According to patent US9062051B2, “Compounds and pharmaceutical compositions thereof for the treatment of proliferative disorders” (GALAPAGOS NV, priority 2014, dated 2015):
Read-outs that look alike come from different tables or passages of the source.

Tests used:
EphA2 = target: T1, EphA2 (UniProt Ref: P29317) (Homo sapiens, UniProt P29317); assay: EphA2 assay (Reaction Biology HotSpot radioactive kinase assay); assay type: biochemical; conditions: ATP 10 μM; read-out: EphA2 potency IC50
T1 construct: purchased Reaction Biology
Summary of the method: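 Radiometric HotSpot assay measuring ^33P incorporation from [^33P]-γ-ATP into poly[Glu:Tyr] (4:1) (0.2 mg/mL) with 10 μM ATP. IC50 from serial 1/3 dilutions starting at 10 or 3 μM.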

[1] = Pharmacokinetics in rats (exposure, AUC); assay type: in vivo, male Sprague Dawley rats; conditions: po; for AUC: male, Sprague Dawley, rat, plasma
Procedure: This study is performed with 6 naïve male Sprague Dawley rats (180-200 g, 6-8 weeks old). Rats are obtained from Janvier, Le Genest St Isle, France.
A controlled environment is maintained in the room with optimal conditions of approximately 15 air changes per hour, a temperature of 22±2 C, a relative humidity of 30-70% and a 12 hour light/dark cycle
Pelleted diet for rodents (UAR A04C-10) is used and is provided ad libitum. Before p.o. dosing, the animals are deprived of food for at least 12 hours before compound administration and 4 hours after administration. All animals had free access to tap water.
Two days before the dosing day, the implantation of a catheter in the jugular vein is done under gaseous anaesthesia with isoflurane.
Rats are dosed intravenously with test compound via a bolus in the tail vein with a dose level of 1 mg/kg. […]
The i.v. bolus and the oral administration are given a dose volume of 5 mL/kg.
From all animals approximately 200 μL blood samples are collected via the catheter and placed into tubes containing Li-heparin as anticoagulant. Blood samples are collected at the various time points (i.v.: 0.05, 0.25, 0.5, 1, 3, 5, 8 and 24 hours after dosing; p.o.: 0.25, 0.5, 1, 3, 5, 8 and 24 hours after dosing).
Blood is kept on ice. Within 1 hour after sampling, blood is centrifuged at 5,000 rpm for 10 min at 4° C. Immediately after centrifugation, the resulting plasma samples are collected into polypropylene tubes and are kept frozen at −20° C. pending bioanalysis.
Plasma samples are assayed by LC-MS/MS. Plasma proteins are precipitated with an excess of methanol containing the internal standard and the corresponding supernatant is injected on a C18 column. Analytes are eluted out the HPLC system by increasing the percentage of the organic mobile phase. An API4000 mass spectrometer (AB Sciex™) is used for the detection and quantification.
Pharmacokinetic parameters are calculated by non-compartmental analysis using WinNonlin® software (Pharsight, version 5.2).

Recombinant EphA7 = target: T2, Recombinant EphA7 (Homo sapiens, UniProt Q15375); assay: EphA7 assay (33P incorporation into poly GT, filter plate); assay type: biochemical
T2 construct: purchased Carna 08-126
Procedure: The principle of the assay consists of the measurement of incorporated ^33P into the substrate poly GT when phosphorylated by the enzyme EphA7 using [^33P]-γ-ATP and ATP. Unincorporated ^33P is removed by loading the samples on a filter plate (using a harvester, Perkin Elmer) and 6 subsequent washing steps. ^33P incorporated in polyGT is measured on a Topcount after addition of microscint to the filter plates (Perkin Elmer).
Recombinant EphA7 (Carna Cat#08-126, 2 ng per well) was incubated with 0.1 mg/mL Poly(Glu,Tyr)sodium salt (4:1), MW 20 000-50 000 (Sigma catalog number P0275) in kinase reaction buffer (10 mM MOPS pH 7.2, 5 mM DTT, 0.01% Triton-X100, 5 mM MnCl2, 0.5 mM Na3VO4, 5 mM beta-glycerolphosphate), 0.15 μM non-radioactive ATP, 0.125 μCi/25 μl ^33P-gamma-ATP (Perkin Elmer, catalog number NEG602K) final concentrations with or without 5 μL containing test compound or vehicle (DMSO, 1% final concentration), in a total volume of 25 μL, in a polypropylene 96-well plate (Greiner, V-bottom). After 90 min at 30° C., reactions were stopped by adding of 25 μL/well of 150 mM phosphoric acid. All of the terminated kinase reaction was transferred to prewashed (75 mM phosphoric acid) 96 well filter plates (Perkin Elmer catalog number 6005177) using a cell harvester (Perkin Elmer). Plates were washed 6 times with 300 μL per well of a 75 mM phosphoric acid solution and the bottom of the plates was sealed. 40 μL/well of Microscint-20 was added, the top of the plates was sealed and readout was performed using the Topcount (Perkin Elmer). The ability of a test compound to inhibit the kinase activity was determined using counts per minutes (cpm) measured by the Topcount as:
Cpm (cpd): cpm determined for sample with test compound present
Cpm (control): cpm determined for sample with positive control inhibitor (10 μM staurosporine)
Cpm (vehicle): cpm determined in the presence of vehicle (1% DMSO)
Dose dilution series were prepared for the compounds enabling the testing of dose-response effects in the EphA7 assay and the calculation of the IC50 for each compound. Each compound was routinely tested at concentration of 20 μM followed by a 1/5 serial dilution, 10 points in a final concentration of 1% DMSO. When potency of compound series increased, more dilutions may be prepared and/or the top concentration may be lowered (e.g. 5 μM, 1 μM).

[2] = EphA7 potency, 0.15 μM ATP, read-out: IC50

T1 sequence (P29317 24-976): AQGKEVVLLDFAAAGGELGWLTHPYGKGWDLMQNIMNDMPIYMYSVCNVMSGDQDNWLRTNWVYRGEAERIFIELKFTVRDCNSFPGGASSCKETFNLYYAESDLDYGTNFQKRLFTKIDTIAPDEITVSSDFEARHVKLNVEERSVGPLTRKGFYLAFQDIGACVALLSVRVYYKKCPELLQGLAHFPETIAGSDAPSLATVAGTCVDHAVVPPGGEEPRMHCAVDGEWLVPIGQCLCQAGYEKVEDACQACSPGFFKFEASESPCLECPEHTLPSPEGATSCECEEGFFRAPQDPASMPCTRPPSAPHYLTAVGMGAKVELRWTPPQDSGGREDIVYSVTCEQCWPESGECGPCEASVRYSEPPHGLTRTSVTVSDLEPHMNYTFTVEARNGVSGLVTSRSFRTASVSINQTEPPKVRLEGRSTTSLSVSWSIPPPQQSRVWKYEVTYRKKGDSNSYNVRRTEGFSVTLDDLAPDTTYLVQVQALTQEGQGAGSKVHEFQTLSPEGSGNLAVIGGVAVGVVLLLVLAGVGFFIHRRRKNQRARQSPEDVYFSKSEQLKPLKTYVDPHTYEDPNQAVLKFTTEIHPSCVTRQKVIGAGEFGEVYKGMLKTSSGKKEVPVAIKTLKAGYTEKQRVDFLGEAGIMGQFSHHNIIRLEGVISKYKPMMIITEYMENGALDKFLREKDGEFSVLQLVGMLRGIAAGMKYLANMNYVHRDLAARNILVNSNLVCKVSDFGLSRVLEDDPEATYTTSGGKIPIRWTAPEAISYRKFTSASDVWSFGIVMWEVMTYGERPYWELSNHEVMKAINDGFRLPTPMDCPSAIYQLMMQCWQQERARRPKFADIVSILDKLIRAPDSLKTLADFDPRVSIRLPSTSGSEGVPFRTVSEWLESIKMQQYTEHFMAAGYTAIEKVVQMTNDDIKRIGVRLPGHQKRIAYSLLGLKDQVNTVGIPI
T2 sequence (Q15375 579-998 limits assumed): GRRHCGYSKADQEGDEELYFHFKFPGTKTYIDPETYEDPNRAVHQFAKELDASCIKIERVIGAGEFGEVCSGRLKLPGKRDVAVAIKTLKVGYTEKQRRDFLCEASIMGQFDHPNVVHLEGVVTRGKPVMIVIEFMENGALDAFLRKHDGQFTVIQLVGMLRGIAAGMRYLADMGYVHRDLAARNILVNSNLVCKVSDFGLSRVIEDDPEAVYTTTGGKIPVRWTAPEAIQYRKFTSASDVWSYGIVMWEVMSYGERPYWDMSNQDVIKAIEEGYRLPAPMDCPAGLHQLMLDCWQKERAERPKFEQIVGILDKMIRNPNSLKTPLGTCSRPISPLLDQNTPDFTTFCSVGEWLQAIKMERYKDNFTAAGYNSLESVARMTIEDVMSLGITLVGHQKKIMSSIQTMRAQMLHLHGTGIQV

Row | IC50 (EphA2) [nM] | AUC ([1]; 5 mg/kg) [ng·h/mL] | IC50 (Recombinant EphA7; [2]) [nM] | Compound | further results
1 | 50 to 100 | 852 | – | Cc1ccc(NC(=O)c2cccc(C(F)(F)F)c2)cc1-c1ccc2c(C(O)CN3CCOCC3)n[nH]c2n1 (centres unmarked) [Compound 2, N-{3-[3-(1-Hydroxy-2-morpholin-4-yl-ethyl)-1H-pyrazolo[3,4-b]pyridin-6-yl]-4-methyl-phenyl}-3-trifluoromethyl-benzamide] | Exposure AUC ([1]; 5 mg/kg): 659 ng·h/mL
2 | – | 214 | > 1000 | Cc1cccc(C(=O)Nc2ccc(C)c(-c3ccc4c(C(O)CN5CCOCC5)n[nH]c4n3)c2)c1 (centres unmarked) [Compound 3, N-{3-[3-(1-Hydroxy-2-morpholin-4-yl-ethyl)-1H-pyrazolo[3,4-b]pyridin-6-yl]-4-methyl-phenyl}-3-methyl-benzamide] | Exposure AUC ([1]; 5 mg/kg): 159 ng·h/mL
3 | > 100 | – | > 1000 | COc1cc(OC)cc(C(=O)Nc2ccc(C)c(-c3ccc4c(C(O)CN5CCOCC5)n[nH]c4n3)c2)c1 (centres unmarked) [Compound 4, N-{3-[3-(1-Hydroxy-2-morpholin-4-yl-ethyl)-1H-pyrazolo[3,4-b]pyridin-6-yl]-4-methyl-phenyl}-3,5-dimethoxy-benzamide] | AUC ([1]; 5 mg/kg, formulated in methylcellulose 5% in water): 407 ng·h/mL
4 | 0.01 to 25 | – | 250 to 500 | Cc1ccc(C(=O)Nc2cccc(C(F)(F)F)c2)cc1-c1ccc2c(C(O)CN3CCOCC3)n[nH]c2n1 (centres unmarked) [Compound 5, 3-[3-(1-Hydroxy-2-morpholin-4-yl-ethyl)-1H-pyrazolo[3,4-b]pyridin-6-yl]-4-methyl-N-(3-trifluoromethyl-phenyl)-benzamide] | –
5 | 50 to 100 | 1790 | > 1000 | Cc1ccc(NC(=O)c2cccc(N(C)C)c2)cc1-c1ccc2c(C(O)CN3CCOCC3)n[nH]c2n1 (centres unmarked) [Compound 6, 3-Dimethylamino-N-{3-[3-(1-hydroxy-2-morpholin-4-yl-ethyl)-1H-pyrazolo[3,4-b]pyridin-6-yl]-4-methyl-phenyl}-benzamide] | –
6 | 25 to 50 | 3260 | > 1000 | COc1cc(OC)cc(C(=O)Nc2ccc(C)c(-c3ccc4c(C(C)O)n[nH]c4n3)c2)c1 (centres unmarked) [Compound 9, N-{3-[3-(1-Hydroxy-ethyl)-1H-pyrazolo[3,4-b]pyridin-6-yl]-4-methyl-phenyl}-3,5-dimethoxy-benzamide] | –
7 | 0.01 to 25 | – | > 1000 | COc1cc(OC)cc(C(=O)Nc2ccc(C)c(-c3ccc4c(C)n[nH]c4n3)c2)c1 [Compound 11, 3,5-Dimethoxy-N-[4-methyl-3-(3-methyl-1H-pyrazolo[3,4-b]pyridin-6-yl)-phenyl]-benzamide] | –
8 | 50 to 100 | 1420 | > 1000 | CCc1n[nH]c2nc(-c3cc(NC(=O)c4cc(OC)cc(OC)c4)cnc3C)ccc12 [Compound 13, N-[5-(3-Ethyl-1H-pyrazolo[3,4-b]pyridin-6-yl)-6-methyl-pyridin-3-yl]-3,5-dimethoxy-benzamide] | –
9 | 0.01 to 25 | – | > 1000 | Cc1cc(C)cc(C(=O)Nc2ccc(C)c(-c3ccc4c(CO)n[nH]c4n3)c2)c1 [Compound 16, N-[3-(3-Hydroxymethyl-1H-pyrazolo[3,4-b]pyridin-6-yl)-4-methyl-phenyl]-3,5-dimethyl-benzamide] | –
10 | 50 to 100 | 1230 | – | COc1cc(OC)cc(C(=O)Nc2cnc(C)c(-c3ccc4c(C)n[nH]c4n3)c2)c1 [Compound 17, 3,5-Dimethoxy-N-[6-methyl-5-(3-methyl-1H-pyrazolo[3,4-b]pyridin-6-yl)-pyridin-3-yl]-benzamide] | –
11 | 0.01 to 25 | – | 500 to 1000 | CCc1n[nH]c2nc(-c3cc(NC(=O)c4cc(C)cc(OCCN5CCOCC5)c4)ccc3C)ccc12 [Compound 20, N-[3-(3-Ethyl-1H-pyrazolo[3,4-b]pyridin-6-yl)-4-methyl-phenyl]-3-methyl-5-(2-morpholin-4-yl-ethoxy)-benzamide] | –
12 | 25 to 50 | – | > 1000 | CCc1n[nH]c2nc(-c3cc(NC(=O)c4cc(C)cc(OCCOC)c4)ccc3C)ccc12 [Compound 21, N-[3-(3-Ethyl-1H-pyrazolo[3,4-b]pyridin-6-yl)-4-methyl-phenyl]-3-(2-methoxy-ethoxy)-5-methyl-benzamide] | –
13 | 50 to 100 | 5840 | > 1000 | COc1cc(OC)cc(C(=O)Nc2ccc(C)c(-c3ccc4c(C5(O)CC5)n[nH]c4n3)c2)c1 [Compound 29, N-{3-[3-(1-Hydroxy-cyclopropyl)-1H-pyrazolo[3,4-b]pyridin-6-yl]-4-methyl-phenyl}-3,5-dimethoxy-benzamide] | –
14 | 25 to 50 | 3570 | > 1000 | Cc1ccc(NC(=O)c2cccc(C(F)(F)F)c2)cc1-c1ccc2c(C(C)O)n[nH]c2n1 (centres unmarked) [Compound 35, N-{3-[3-(1-Hydroxy-ethyl)-1H-pyrazolo[3,4-b]pyridin-6-yl]-4-methyl-phenyl}-3-trifluoromethyl-benzamide] | –
15 | – | – | > 1000 | CCc1n[nH]c2nc(-c3cc(NC(=O)c4cc(OC)cc(C(F)(F)F)c4)cnc3C)ccc12 [Compound 49, N-[5-(3-Ethyl-1H-pyrazolo[3,4-b]pyridin-6-yl)-6-methyl-pyridin-3-yl]-3-methoxy-5-trifluoromethyl-benzamide] | –
16 | 50 to 100 | 1270 | 500 to 1000 | CCc1n[nH]c2nc(-c3cc(NC(=O)c4cc(C)cc(C)c4)cnc3C)ccc12 [Compound 50, N-[5-(3-Ethyl-1H-pyrazolo[3,4-b]pyridin-6-yl)-6-methyl-pyridin-3-yl]-3,5-dimethyl-benzamide] | –
17 | 0.01 to 25 | 965 | 500 to 1000 | Cc1ccc(NC(=O)c2cccc(C(F)(F)F)c2)cc1-c1ccc2c([C@H](C)O)n[nH]c2n1 [Compound 55, N-{3-[3-((S)-1-Hydroxy-ethyl)-1H-pyrazolo[3,4-b]pyridin-6-yl]-4-methyl-phenyl}-3-trifluoromethyl-benzamide] | AUC ([1]; 3 mg/kg): 1060 ng·h/mL; AUC ([1]; 30 mg/kg): 13600 ng·h/mL
18 | – | 273 | – | Cc1ccc(NC(=O)c2cccc(C(F)(F)F)c2)cc1-c1cc(C)c2c(N)n[nH]c2n1 [Compound A, N-(3-(3-amino-4-methyl-1H-pyrazolo[3,4-b]pyridin-6-yl)-4-methylphenyl)-3-(trifluoromethyl)benzamide] | IC50 (Recombinant EphA7; comparative compounds, read-out: EphA7 potency IC50): > 1000 nM
